Patent publication US10919891B2, “Heterocyclic compound” (TAKEDA PHARMACEUTICAL COMPANY LIMITED, priority 2017, dated 2021)

Experiments:
human CaSR = biological target: T1, human CaSR (Homo sapiens, UniProt P41180); experiment: Human CaSR Antagonist Activity (CHO cells, NFAT-Luciferase reporter); type: cell-based; conditions: CHO, 2 h, 3.3 μm test compound; CaCl2 final 1.3 mM; 100% = reference carboxamide at 10 μM; read-out: Inhibition rate (%) at 3.3 μm
T1 construct: expressed in transfected cells; host or cells: CHO cells
T1 sequence (P41180 20-1078): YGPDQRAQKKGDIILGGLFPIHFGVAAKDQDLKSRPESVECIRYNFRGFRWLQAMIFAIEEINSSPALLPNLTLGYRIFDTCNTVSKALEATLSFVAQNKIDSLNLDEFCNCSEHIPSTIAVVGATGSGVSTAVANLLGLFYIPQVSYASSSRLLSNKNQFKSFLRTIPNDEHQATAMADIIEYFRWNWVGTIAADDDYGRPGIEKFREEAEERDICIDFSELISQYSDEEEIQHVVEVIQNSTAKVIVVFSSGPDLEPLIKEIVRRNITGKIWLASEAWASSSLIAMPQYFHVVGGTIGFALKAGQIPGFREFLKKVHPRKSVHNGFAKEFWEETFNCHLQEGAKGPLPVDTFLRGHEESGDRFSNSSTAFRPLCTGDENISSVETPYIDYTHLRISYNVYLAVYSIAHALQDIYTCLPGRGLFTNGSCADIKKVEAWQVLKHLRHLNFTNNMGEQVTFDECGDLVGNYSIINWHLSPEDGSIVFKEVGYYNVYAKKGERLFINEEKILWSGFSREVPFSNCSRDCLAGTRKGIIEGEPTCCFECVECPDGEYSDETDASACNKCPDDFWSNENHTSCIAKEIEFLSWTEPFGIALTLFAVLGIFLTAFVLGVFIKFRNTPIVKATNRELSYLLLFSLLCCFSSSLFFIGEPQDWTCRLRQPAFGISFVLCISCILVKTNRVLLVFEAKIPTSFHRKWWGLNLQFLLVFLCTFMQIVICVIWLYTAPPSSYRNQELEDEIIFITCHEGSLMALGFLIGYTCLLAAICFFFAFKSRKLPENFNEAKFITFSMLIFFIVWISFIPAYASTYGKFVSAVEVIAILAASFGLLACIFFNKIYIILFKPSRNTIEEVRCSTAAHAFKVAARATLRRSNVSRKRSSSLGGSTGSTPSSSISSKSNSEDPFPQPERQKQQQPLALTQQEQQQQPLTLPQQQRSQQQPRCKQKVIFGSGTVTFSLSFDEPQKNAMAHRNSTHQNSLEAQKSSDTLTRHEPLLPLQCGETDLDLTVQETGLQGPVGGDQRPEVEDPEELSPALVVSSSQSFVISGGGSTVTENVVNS
Procedure: CaSR antagonist activity measurement was performed using Bright-Glo Luciferase assay system (Promega Corporation). CHO cells in which human CaSR and NFAT-Luciferase reporter gene were forcibly expressed were suspended in MEM alpha (Wako Pure Chemical Industries, Ltd.) containing 10% dialyzed serum (HyClone). The cells in suspension was seeded in 384-well white plate (Corning) at 10,000/20 μL/well, and cultured in an incubator of 37° C., 5% CO2 for one day. A diluent of Test compound was prepared with assay buffer (MEM alpha containing 10 mM HEPES (Life Technologies) and 10% dialysis serum). The diluent was added to the plate at 5 μL/well and allowed to stand at 37° C. for 10 minutes. Further, a diluent of 7.8 mM CaCl2 prepared with assay buffer (final concentration 1.3 mM) was added at 5 μl/well and allowed to stand in an incubator of 37° C., 5% CO2 for 2 hours. Bright-Glo reagents (Promega Corporation) were added at 10 μL/well, and the obtained mixture was stirred for 5 minutes, and then luminescence intensity was measured using Multi-label reader Envision (PerkinElmer, Inc.). The activity (%) of the test compound was calculated with the definitions in which the luminescence intensity when DMSO is added in place of the test compound is defined as 0% inhibition; and the luminescence intensity when (5R)—N-(1-ethyl-1-(4-ethylphenyl)propyl)-2,7,7-trimethyl-5-phenyl-4,5,6,7-tetrahydropyrazolo[1,5-a]Pyrimidine-3-carboxamide at final concentration of 10 μM is added is defined as 100% inhibition.

CYP3A4 = biological target: T2, CYP3A4 (Homo sapiens, UniProt P08684); experiment: CYP3A4 TDI (human liver microsomes, testosterone 6β-hydroxylation); type: in vitro ADME; conditions: test compound 30 μM, 60 min vs 0 min preincubation with NADPH, 37° C.
T2 construct: Human liver microsomes purchased from XenoTech, LLC (Lenexa, Kans.) was used; tissue XenoTech, LLC; host or cells: human liver microsomes
Procedure: Human liver microsomes purchased from XenoTech, LLC (Lenexa, Kans.) was used. Test compounds were dissolved in acetonitrile, acetonitrile/methanol (1:1, v/v) or DMSO/acetonitrile (1:4, v/v). To a human liver microsomes solution adjusted with phosphate buffer (pH 7.4), the test compound solution was added to obtain a human liver microsomes reaction solution having the test compound concentration of 30 μM. To the human liver microsome reaction solution, NADPH production system was added, and the mixture was preincubated at 37° C. for 0 minutes or 60 minutes. After the preincubation, probe substrate testosterone was added, and testosterone metabolite 6β-hydroxytestosterone was analyzed by LC/MS/MS to evaluate CYP3A4 enzymatic activity.
The enzyme activity (% of control) at each preincubation point was calculated from the following equation: % of control=[(activity of test compound addition group)/(activity of test compound non-addition group)]×100.
The remaining activity (% remaining) after 60 minutes of preincubation was calculated from the following equation: Remaining activity (%)=[activity after 60 minutes (% of control60 min)]/[activity after 0 minutes (% of control0 min)]×100.

CYP3A = experiment: CYP Induction (CYP3A activity in cryopreserved hepatocytes, P450-Glo CYP3A4 assay); type: in vitro ADME; conditions: % of positive control (inducibility by 10 μmol/L rifampicin = 100%); hepatocytes treated 3 days
Procedure: Cryopreserved hepatocytes were thawed in a culture medium (In VitroGRO™ CP Medium, Celsis In Vitro Technologies, U.S.A.), and the resultant was added to BioCoat™ Matrigel® Matrix Thin-Layer 96 well (Becton, Dickinson and Company, U.S.A.) at a concentration of 40,000 cells/well. After culturing for 24 hours, the culture medium was removed, and replaced with an incubation medium (In VitroGRO™, HI Medium with Torpedo Antibiotic Mix, Celsis In Vitro Technologies, U.S.A.). Cells were cultured for an additional 3 days. The medium was removed on day 4, and the remained cells were treated in the induction medium containing a test compound for 3 days in the presence or absence of 10 μmol/L rifampicin. The induction medium was replaced every day. The test compound addition wells in the presence of 10 μmol/L rifampicin were used to evaluate the inhibitory effect of the test compound on the inducibility of the CYP3A activity by rifampicin. The CYP3A activity was evaluated by measuring luciferin generating amount after the addition of 2 μmol/L luciferin-IPA using IPA P450-Glo™ CYP3A4 assay systems (Promega Corporation, U.S.A.). All cultures were carried out under a humidified environment at 37° C., 5% CO2. The inducibility by rifampicin was defines as 100%, and the inducibility of the test compound (% of positive control) was calculated from the following equation: [(luciferin fluorescence intensity in the absence of rifampicin and the presence of test compound)−(luciferin fluorescence intensity in the absence of rifampicin and test compound)/(luciferin fluorescence intensity in the presence of rifampicin and the absence of test compound)−(Luciferin fluorescence intensity in the absence of rifampicin and test compound)]×100.

[1] = test system: monocrotaline (MCT)-induced pulmonary hypertension rats; conditions: cited from earlier work
[2] = test system: hypoxia-induced pulmonary hypertension (HPH) mice; conditions: cited from earlier work
[3] = dosing after cardiac loading; cited from earlier work
[4] = test system: aortic banding (TAC) models; conditions: cited from earlier work

T2 sequence (P08684 whole entry): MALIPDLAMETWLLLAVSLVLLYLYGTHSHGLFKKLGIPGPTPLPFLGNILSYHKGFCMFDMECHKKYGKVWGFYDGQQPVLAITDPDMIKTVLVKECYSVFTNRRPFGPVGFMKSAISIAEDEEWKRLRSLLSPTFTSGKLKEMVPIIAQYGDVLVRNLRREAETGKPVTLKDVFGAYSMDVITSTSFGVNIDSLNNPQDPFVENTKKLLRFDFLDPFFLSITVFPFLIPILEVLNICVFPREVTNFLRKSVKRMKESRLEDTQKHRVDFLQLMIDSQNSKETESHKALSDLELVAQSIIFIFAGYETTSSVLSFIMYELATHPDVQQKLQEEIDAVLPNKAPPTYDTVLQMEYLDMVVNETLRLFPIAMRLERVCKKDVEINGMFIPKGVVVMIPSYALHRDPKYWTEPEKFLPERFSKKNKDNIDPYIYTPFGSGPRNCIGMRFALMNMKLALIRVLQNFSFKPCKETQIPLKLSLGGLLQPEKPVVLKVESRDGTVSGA

inhibition at 3.3 µM (human CaSR) | Remaining Activity (%) (CYP3A4) | Inducibility (%) (CYP3A) | Structure (SMILES) | cardiac hypertrophy, elevated right ventricular systolic pressure, fibrosis of cardiac muscle tissue, pulmonary vascular remodeling [1] | cardiac hypertrophy, elevated right ventricular systolic pressure, fibrosis of cardiac muscle tissue, pulmonary vascular remodeling [2] | cardiac hypofunction [3] | cardiac hypertrophy [4]
99% | 97.7% | 1.2% | CC1(C)C[C@H](c2ccccc2)Nc2c(C(=O)N3CC4CC4(c4ccc(C(F)(F)F)c(Cl)c4)C3)cnn21 (single isomer, unassigned) [Example 11] | – | – | – | –
97% | 78.1% | 2.3% | CC1(C)C[C@H](c2ccccc2)Nc2c(C(=O)N3CC4CC4(c4ccc(C(F)(F)F)cc4)C3)cnn21 (single isomer, unassigned) [Example 7] | – | – | – | –
101% | 81.8% | 16.7% | CC1(C)C[C@H](c2ccccc2)Nc2c(C(=O)N3CC4CC4(c4ccc(Cl)c(C(F)(F)F)c4)C3)cnn21 (single isomer, unassigned) [Example 13] | – | – | – | –
96% | 86.4% | 9.0% | CC1(C)C[C@H](c2ccccc2)Nc2c(C(=O)N3CC4CC4(c4cc(Cl)cc(C(F)(F)F)c4)C3)cnn21 (single isomer, unassigned) [Example 9] | – | – | – | –

More lines, now with the values behind:

Structure (SMILES) | inhibition at 3.3 µM (human CaSR) | Remaining Activity (%) (CYP3A4) | Inducibility (%) (CYP3A) | cardiac hypertrophy, elevated right ventricular systolic pressure, fibrosis of cardiac muscle tissue, pulmonary vascular remodeling [1] | cardiac hypertrophy, elevated right ventricular systolic pressure, fibrosis of cardiac muscle tissue, pulmonary vascular remodeling [2] | cardiac hypofunction [3] | cardiac hypertrophy [4]
CC(C)(Cc1ccc2ccccc2c1)NC[C@@H](O)COc1cccc(Cl)c1C#N [NPS-2143] | – | – | – | suppressed | suppressed | – | –
C[C@@H](N[C@H]1CCCC[C@@H]1NC(=O)c1ccc(Cl)cc1)c1cccc2ccccc12 [Calhex231] | – | – | – | – | – | fails to improve cardiac hypofunction | improves cardiac hypertrophy
CC1(C)C[C@H](c2ccccc2)Nc2c(C(=O)N3CC4CC4(c4cc(Cl)cc(Cl)c4)C3)cnn21 (single isomer, unassigned) [Example 4] | 100% | 87.0% | 10.7% | – | – | – | –
COc1ccccc1C12CN(C(=O)c3cnn4c3N[C@@H](c3ccccc3)CC4(C)C)CC1C2(F)F (stereo partly drawn) [Example 52, (6,6-Difluoro-1-(2-methoxyphenyl)-3-azabicyclo[3.1 0]hex-3-yl)((5R)-7,7-dimethyl-5-phenyl-4.5,5,7-tetrahydropyrazolo[1,5-a]pyrimidin-3-yl)methanone] | 111% | – | – | – | – | – | –
